Source: PMC10215404, “Effect of Indole-Containing Pyrazino[2,1-b]quinazoline-3,6-diones in the Virulence of Resistant Bacteria” (Antibiotics, 2023)
Converted amounts (≈) assume the structure as drawn. “And” between values parts separate entries of the source, which are not always exact repeats. Identical values can stand only once. Like-named read-outs stand apart in the source and are kept apart here.

Legend:
[1] = test system: E. coli AG100; experiment: Real-time ethidium bromide accumulation assay (efflux pump inhibition); settings: minute 60
[2] = test system: E. coli AG100A; experiment: as above; settings: minute 60
[3] = test system: E. coli SA/2; parameters: method as in PMID 34203998; settings: cited from earlier work
[4] = test system: S. aureus 272123; experiment: Real-time ethidium bromide accumulation assay (efflux pump inhibition); settings: minute 60
[5] = test system: E. coli AG100; experiment: MIC determination, broth microdilution; type: cell-based; settings: Escherichia coli
From the text: (§1) Both reference and resistant strains used in this work were employed by our group for the screening of different families of compounds, such as xanthones and thioxanthones.

[6] = test system: E. coli AG100A; experiment: MIC determination, broth microdilution; type: cell-based; settings: Escherichia coli
From the text: as §1

[7] = test system: S. aureus MRSA 272123; experiment: MIC determination, broth microdilution; type: cell-based; settings: Staphylococcus aureus
From the text: as §1

[8] = test system: MRSA 272123; experiment: Biofilm formation, crystal violet method; type: cell-based, Staphylococcus aureus
Procedure: (§2) The antibiofilm effect of the tested compounds was evaluated using the crystal violet method on E. coli AG100, E. coli AG100A, and MRSA 272123. […] CCCP was used as a positive control.
(§3) The biofilm-forming ability of the S. aureus strains was studied in 96-well microtiter plates using TSB broth in the presence of compounds. The biofilm-forming ability of the E. coli strains was studied in 96-well microtiter plates using LB broth in the presence of the compounds. […] The final volume was 200 μL in each well. The positive control was CCCP at 50 µM. Plates were incubated for 48 h at 30 °C with gentle shaking at 100 rpm. After the incubation period, the medium was removed and the plate was washed with water to remove unattached cells. A total of 200 μL CV (0.1% [v/v]) was added to each wells and incubated for 15 min at room temperature. CV was discarded from the wells and the plate was washed with water again. Then, 200 μL of 70% ethanol was added to each well and the biofilm formation was determined by measuring the OD at 600 nm using a Multiscan EX ELISA plate reader (Thermo Labsystems, Cheshire, WA, USA). The antibiofilm effect of the compounds was expressed as the percentage (%) decrease in biofilm formation.

[9] = test system: E. coli AG100; experiment: Biofilm formation, crystal violet method; type: cell-based, Escherichia coli; settings: 50 μM
Procedure: as §2, §3

[10] = test system: Staphylococcus aureus; settings: cited from earlier work
[11] = test system: NIH/3T3 mouse fibroblast cell line; experiment: Cytotoxicity assay (MTT); type: cell-based; settings: NIH3T3, 24 h
Procedure: The effects of increasing concentrations of compounds on cell growth were tested in 96-well flat-bottomed microtiter plates. The compounds were diluted in a volume of 100 μL of medium. Afterwards, 1 × 10^4 cells in 100 μL of medium were added to each well, with the exception of the medium control. In the case of NIH/3T3 cells, the compounds were added after seeding the cells at 37 °C overnight. The plates were incubated at 37 °C for 24 h; after the incubation period, 20 μL of MTT solution (from a 5 mg/mL stock) was added to each well. After 4 h of incubation at 37 °C, 100 μL of SDS solution (10% in 0.01 M HCl) was added to each well and the plates were incubated at 37 °C overnight. Cell growth was determined by measuring the optical density (OD) at 540 nm (ref. 630 nm) with a Multiscan EX ELISA reader. Inhibition of cell growth was determined as IC50 values, defined as the inhibitory dose that reduced the growth of the cells exposed to the tested compounds by 50%. IC50 values and the SD of triplicate experiments were calculated by using GraphPad Prism software version 5.00 for Windows with a nonlinear regression curve fit (GraphPad Software, San Diego, CA, USA; www.graphpad.com, accessed on 14 July 2022). Doxorubicin (from a 2 mg/mL stock solution, Teva Pharmaceuticals) was used as the positive control.

[12] = test system: E. faecalis PSi/107; experiment: MIC determination, broth microdilution; type: cell-based; settings: Enterococcus faecalis
From the text: as §1

[13] = test system: E. faecalis PFi/2; experiment: MIC determination, broth microdilution; type: cell-based; settings: Enterococcus faecalis
From the text: as §1

[14] = test system: E. faecalis ATCC 29212; experiment: MIC determination, broth microdilution; type: cell-based; settings: Enterococcus faecalis
From the text: as §1

[15] = test system: S. aureus ATCC 29213; experiment: MIC determination, broth microdilution; type: cell-based; settings: Staphylococcus aureus
From the text: as §1

[16] = test system: S. aureus 66/1 (MRSA); experiment: MIC determination, broth microdilution; type: cell-based; settings: Staphylococcus aureus
From the text: as §1

[17] = test system: E. faecalis B3/101 (VRE); experiment: MIC determination, broth microdilution; type: cell-based; settings: Enterococcus faecalis
From the text: as §1

[18] = test system: E. faecalis B3/101; experiment: Antibiotic potentiation with vancomycin, broth microdilution
[19] = test system: E. coli AG100, E. coli AG100A, and MRSA 272123; experiment: Biofilm formation, crystal violet method (overall statement); type: cell-based
Procedure: as §2, §3

[20] = test system: phytopathogenic fungi; parameters: method as in PMID 22409377; settings: several phytopathogenic fungi; cited from earlier work
[21] = test system: Enterococcus faecalis; settings: E. faecalis B3/101; cited from earlier work
[22] = ATCC29213, value in parentheses

N#CC(C#N)=NNc1cccc(Cl)c1 [CCCP, carbonyl cyanide m-chlorophenyl hydrazone, reference compound]
RFI ± SD ([1]; compound at 50 μM): 1.56 ± 0.01 | RFI ± SD ([2]; compound at 50 μM): 1.13 ± 0.02

CO/N=C(\C(=O)N[C@@H]1C(=O)N2C(C(=O)O)=C(COC(C)=O)CS[C@H]12)c1csc(N)n1 [CTX, cefotaxime]
MIC [3]: 512 µg/mL (≈ 1120 µM)

CC(C)C[C@@H]1NC(=O)[C@@H](Cc2c[nH]c3ccccc23)n2c1nc1c(Cl)cc(Cl)cc1c2=O [Compound 4]
RFI ± SD ([1]; compound at 50 μM): 0.01 ± 0.02 | RFI ± SD ([4]; compound at 50 μM): 1.13 ± 0.20 | MIC [5]: > 100 µM | MIC [6]: > 100 µM | MIC [7]: > 100 µM | decrease in biofilm formation [8]: 91% | antibiofilm effect (in words) [9]: reduced the amount of biofilm | RFI ± SD ([2]; compound at 50 μM): 0.26 ± 0.07 | MIC ([10]; resistant strain of S. aureus): 8 µg/mL (≈ 17 µM) | MIC ([10]; sensitive strain of S. aureus): 4 µg/mL (≈ 8.52 µM)

CC(C)C[C@@H]1NC(=O)[C@@H](Cc2c[nH]c3ccccc23)n2c1nc1ccc(F)cc1c2=O [Compound 12a, (1S,4R)-4-((1H-indol-3-yl)methyl)-8-fluoro-1-isobutyl-1,2-dihydro-6H-pyrazino[2,1-b]quinazoline-3,6(4H)-dione]
RFI ± SD ([1]; compound at 50 μM): −0.17 ± 0.02 | RFI ± SD ([1]; compound at 100 μM): 2.45 ± 0.26 | IC50 [11]: 52.2 ± 0.75 µM | RFI ± SD ([4]; compound at 50 μM): 0.63 ± 0.04 | RFI ± SD ([4]; compound at 100 μM): 1.03 ± 0.02 | MIC [12]: > 100 µM | MIC [13]: > 100 µM | MIC ([14]; ATCC29212): > 100 µM | MIC ([15]; ATCC29213): > 100 µM | MIC [16]: 77 µM and 32 µg/mL | MIC [17]: 77 µM and 32 µg/mL | MIC [7]: > 100 µM | antibiofilm effect (in words) [9]: reduced the amount of biofilm | RFI ± SD ([2]; compound at 100 μM): 0.59 ± 0.03 | MIC of vancomycin in combination with the compound ([18]; E. faecalis B3/101, compound at 16 µg/mL): 256 µg/mL

CC(C)C[C@@H]1NC(=O)[C@@H](Cc2c[nH]c3ccccc23)n2c1nc1cc(F)ccc1c2=O [Compound 12b, (1S,4R)-4-((1H-indol-3-yl)methyl)-9-fluoro-1-isobutyl-1,2-dihydro-6H-pyrazino[2,1-b]quinazoline-3,6(4H)-dione]
RFI ± SD ([1]; compound at 50 μM): −0.07 ± 0.06 | RFI ± SD ([1]; compound at 100 μM): 1.47 ± 0.12 | IC50 [11]: 58 ± 1.58 µM | RFI ± SD ([4]; compound at 50 μM): 0.96 ± 0.07 | MIC [12]: > 100 µM | MIC [13]: > 100 µM | MIC ([14]; ATCC29212): > 100 µM | MIC ([15]; ATCC29213): 77 µM | MIC [15, 22]: 32 µg/mL | MIC [16]: 77 µM and 32 µg/mL | MIC [17]: 38 µM and 16 µg/mL | MIC [7]: 100 µM and 41.8 µg/mL | RFI ± SD ([2]; compound at 100 μM): 0.77 ± 0.17

CC(C)C[C@@H]1NC(=O)[C@H](Cc2c[nH]c3cc(F)ccc23)n2c1nc1c(Cl)cc(Cl)cc1c2=O [Compound 12c]
antibiofilm capacity (in words) [19]: did not show any relevant activity | RFI ± SD ([1]; compound at 50 μM): 0.24 ± 0.16 | RFI ± SD ([1]; compound at 100 μM): 3.60 ± 0.01 | IC50 [11]: 46.1 ± 0.66 µM | RFI ± SD ([4]; compound at 6.25 μM (MIC/2)): 0.49 ± 0.01 | MIC [12]: > 100 µM | MIC [13]: > 100 µM | MIC ([14]; ATCC29212): 33 to 66 µM | MIC ([14]; ATCC29212, value in parentheses): 16 to 32 µg/mL | MIC ([15]; ATCC29213): 33 µM | MIC [15, 22]: 16 µg/mL | MIC [16]: 33 µM and 16 µg/mL | MIC [17]: 33 µM and 16 µg/mL | MIC [7]: 12.5 µM and 6.1 µg/mL | RFI ± SD ([2]; compound at 100 μM): 4.40 ± 1.78

CC(C)C[C@@H]1NC(=O)[C@@H](Cc2c[nH]c3ccccc23)n2c1nc1ccc(I)cc1c2=O [Compound 13a]
RFI ± SD ([1]; compound at 50 μM): 0.38 ± 0.01 | RFI ± SD ([4]; compound at 50 μM): 2.39 ± 0.09 | MIC [7]: > 100 µM | decrease in biofilm formation [8]: 91% | RFI ± SD ([2]; compound at 50 μM): 0.48 ± 0.58

CC(C)C[C@@H]1NC(=O)[C@@H](Cc2c[nH]c3ccccc23)n2c1nc1ccc(Br)cc1c2=O [Compound 13b]
RFI ± SD ([1]; compound at 50 μM): 0.52 ± 0.18 | RFI ± SD ([4]; compound at 50 μM): 1.53 ± 0.02 | MIC [7]: > 100 µM | RFI ± SD ([2]; compound at 50 μM): 0.12 ± 0.05

Cc1ccc2nc3n(c(=O)c2c1)[C@H](Cc1c[nH]c2ccccc12)C(=O)N[C@H]3C(C)C [Compound 13c]
RFI ± SD ([1]; compound at 50 μM): 0.17 ± 0.02 | RFI ± SD ([4]; compound at 50 μM): 0.94 ± 0.04 | MIC [7]: 100 µM and 40 µg/mL | RFI ± SD ([2]; compound at 50 μM): 0.13 ± 0.05

O=C1N[C@@H](Cc2ccc(OCc3ccccc3)cc2)c2nc3c(Cl)cc(Cl)cc3c(=O)n2[C@@H]1Cc1c[nH]c2ccccc12 [Compound 13d]
RFI ± SD ([1]; compound at 50 μM): −0.01 ± 0.03 | RFI ± SD ([4]; compound at 50 μM): 0.19 ± 0.08 | MIC [7]: > 100 µM | decrease in biofilm formation [9]: 61% | RFI ± SD ([2]; compound at 50 μM): 0.55 ± 0.29

COc1cccc2c1C(=O)c1c(O)c3c(c(O)c1C2=O)C[C@@](O)(C(=O)CO)C[C@@H]3O[C@H]1C[C@H](N)[C@H](O)[C@H](C)O1 [DOXO, Doxorubicin, reference compound]
IC50 [11]: 3.72 ± 0.15 µM

COC(=O)[C@H]1[C@H]2C[C@@H]3c4[nH]c5cc(OC)ccc5c4CCN3C[C@H]2C[C@@H](OC(=O)c2cc(OC)c(OC)c(OC)c2)[C@@H]1OC [RES, reserpine, reference compound]
RFI ± SD ([4]; compound at 25 μM): 0.68 ± 0.05

C[C@@H]1N[C@H]2N(C1=O)c1ccccc1[C@@]2(O)C[C@@H]1C(=O)N[C@@H](C)c2nc3ccccc3c(=O)n21 [fumiquinazoline A]
MIC [20]: 12.5 to 25 µg/mL

C[C@H]1NC(=O)[C@@H](Cc2c[nH]c3ccccc23)n2c1nc1ccccc1c2=O [fumiquinazoline G]
MIC [20]: 12.5 to 25 µg/mL

CN[C@H](CC(C)C)C(=O)N[C@H]1C(=O)N[C@@H](CC(N)=O)C(=O)N[C@H]2C(=O)N[C@H]3C(=O)N[C@H](C(=O)N[C@H](C(=O)O)c4cc(O)cc(O)c4-c4cc3ccc4O)[C@H](O)c3ccc(c(Cl)c3)Oc3cc2cc(c3O[C@@H]2O[C@H](CO)[C@@H](O)[C@H](O)[C@H]2O[C@H]2C[C@](C)(N)[C@H](O)[C@H](C)O2)Oc2ccc(cc2Cl)[C@H]1O [vancomycin, reference compound]
MIC [21]: 1024 µg/mL (≈ 707 µM) | MIC ([18]; Enterococcus faecalis, B3/101, read-out: MIC of vancomycin alone obtained in this study): 516 µg/mL
